In ChEMBL document CHEMBL1125167, “Synthesis and broad-spectrum antiviral activity of 7,8-dihydro-7-methyl-8-thioxoguanosine” (1990):

How the values were obtained:
[1] = Ratio between percent survivors and the total animals taken against rat corona virus infection at a dose of 100 mg/kg half-daily intraperitoneal doses at 24 and 18 hours before the virus inoculation; 9/12; assay type: functional
[2] = Ratio between percent survivors and the total animals taken against EMC virus infection at a dose of 50 mg/kg half-daily intraperitoneal doses at 24 and 18 hours before the virus inoculation; 9/12; assay type: functional
[3] = Ratio between percent survivors and the total animals taken against Banzi virus infection at a dose of 25 mg/kg half-daily intraperitoneal doses at 24 and 18 hours before the virus inoculation; 11/12; assay type: functional
Semliki Forest virus [4] = experiment: Indicates the number of animals that died and survivors lived through 21 days at 25 mg/kg against Forest virus; assay type: functional
[5] = Ratio between percent survivors and the total animals taken against Forest virus infection at a dose of 50 mg/kg half-daily intraperitoneal doses at 24 and 18 hours before the virus inoculation; 9/12; assay type: functional
Coronaviridae = experiment: Indicates the number of animals that died and survivors lived through 21 days at 100 mg/kg rat corona virus; assay type: functional, Coronavirus
Banzi virus [6] = experiment: Indicates the number of animals that died and survivors lived through 21 days at 50 mg/kg against Banzi virus; assay type: functional
[7] = system: Encephalomyocarditis virus; experiment: Indicates the number of animals that died and survivors lived through 21 days at 50 mg/kg against EMC virus; assay type: functional
San Angelo virus [8] = experiment: Indicates the number of animals that died and survivors lived through 21 days at 25 mg/kg against San Angelo virus; assay type: functional
[9] = Ratio between percent survivors and the total animals taken against EMC virus infection at a dose of 25 mg/kg half-daily intraperitoneal doses at 24 and 18 hours before the virus inoculation; 8/12; assay type: functional
[10] = Ratio between percent survivors and the total animals taken against San Angelo virus infection at a dose of 25 mg/kg half-daily intraperitoneal doses at 24 and 18 hours before the virus inoculation; 11/12; assay type: functional
Banzi virus [11] = experiment: Indicates the number of animals that died and survivors lived through 21 days at 25 mg/kg against Banzi virus; assay type: functional
[12] = Ratio between percent survivors and the total animals taken against San Angelo virus infection at a dose of 50 mg/kg half-daily intraperitoneal doses at 24 and 18 hours before the virus inoculation; 11/12; assay type: functional
[13] = Ratio between percent survivors and the total animals taken against Forest virus infection at a dose of 25 mg/kg half-daily intraperitoneal doses at 24 and 18 hours before the virus inoculation; 8/12; assay type: functional
Semliki Forest virus [14] = experiment: Indicates the number of animals that died and survivors lived through 21 days at 50 mg/kg against Forest virus; assay type: functional
San Angelo virus [15] = experiment: Indicates the number of animals that died and survivors lived through 21 days at 50 mg/kg against San Angelo virus; assay type: functional
[16] = Ratio between percent survivors and the total animals taken against Banzi virus infection at a dose of 50 mg/kg half-daily intraperitoneal doses at 24 and 18 hours before the virus inoculation; 12/12; assay type: functional
[17] = system: Encephalomyocarditis virus; experiment: Indicates the number of animals that died and survivors lived through 21 days at 25 mg/kg against EMC virus; assay type: functional
[18] = Evaluated for its effect by the ratio between percent survivors and the total animals taken against Banzi virus infection at a dose of 25 mg/kg half-daily intraperitoneal doses at 24 and 18 hours before the virus inoculation; 11/12; assay type: functional
[19] = Evaluated for its effect by the ratio between percent survivors and the total animals taken against Banzi virus infection at a dose of 50 mg/kg half-daily intraperitoneal doses at 24 and 18 hours before the virus inoculation; 10/12; assay type: functional
[20] = Evaluated for its effect by the ratio between percent survivors and the total animals taken against EMC virus infection at a dose of 50 mg/kg half-daily intraperitoneal doses at 24 and 18 hours before the virus inoculation; 9/12; assay type: functional
[21] = Evaluated for its effect by the ratio between percent survivors and the total animals taken against San Angelo virus infection at a dose of 25 mg/kg half-daily intraperitoneal doses at 24 and 18 hours before the virus inoculation; 9/12; assay type: functional
[22] = Evaluated for its effect by the ratio between percent survivors and the total animals taken against Forest virus infection at a dose of 50 mg/kg half-daily intraperitoneal doses at 24 and 18 hours before the virus inoculation; 10/12; assay type: functional
[23] = Evaluated for its effect by the ratio between percent survivors and the total animals taken against San Angelo virus infection at a dose of 50 mg/kg half-daily intraperitoneal doses at 24 and 18 hours before the virus inoculation; 10/12; assay type: functional
[24] = Evaluated for its effect by the ratio between percent survivors and the total animals taken against EMC virus infection at a dose of 25 mg/kg half-daily intraperitoneal doses at 24 and 18 hours before the virus inoculation; 6/12; assay type: functional
[25] = Evaluated for its effect by the ratio between percent survivors and the total animals taken against rat corna virus infection at a dose of 100 mg/kg half-daily intraperitoneal doses at 24 and 18 hours before the virus inoculation; 7/12; assay type: functional
[26] = Evaluated for its effect by the ratio between percent survivors and the total animals taken against Forest virus infection at a dose of 25 mg/kg half-daily intraperitoneal doses at 24 and 18 hours before the virus inoculation; 9/12; assay type: functional

For Cn1c(=O)n(C2O[C@H](CO)[C@@H](O)[C@H]2O)c2nc(N)nc(O)c21 (stereo partly specified), which Ratio [1] is on record?
Its Ratio is 9.

And the Ratio [2]?
Its Ratio is 9.

And the Ratio [3]?
The Ratio was 11.

What about the Mean survival time (Semliki Forest virus [4]) of the same compound?
The Mean survival time was 8.7 days.

And the Ratio [5]?
The Ratio was 9.

What about the Mean survival time (Coronaviridae) of the same compound?
Its Mean survival time is 9.7 days.

What about the Mean survival time (Banzi virus [6]) of the same compound?
Its Mean survival time is greater than 21 days.

And the Mean survival time [7]?
Its Mean survival time is 8 days.

What about the Mean survival time (San Angelo virus [8]) of the same compound?
The Mean survival time was 12 days.

What about the Ratio [9] of the same compound?
Its Ratio is 8.

What about the Ratio [10] of the same compound?
Its Ratio is 11.

And the Mean survival time (Banzi virus [11])?
Its Mean survival time is 8 days.

What about the Ratio [12] of the same compound?
Its Ratio is 11.

What about the Ratio [13] of the same compound?
Its Ratio is 8.

And the Mean survival time (Semliki Forest virus [14])?
Its Mean survival time is 9.7 days.

What about the Mean survival time (San Angelo virus [15]) of the same compound?
The Mean survival time was 10 days.

What about the Ratio [16] of the same compound?
Its Ratio is 12.

And the Mean survival time [17]?
Its Mean survival time is 8.3 days.

Which Ratio [18] does the source give for Cn1c(=S)n(C2O[C@H](CO)[C@@H](O)[C@H]2O)c2nc(N)nc(O)c21 (stereo partly specified) here?
The Ratio was 11.

What about the Mean survival time (Semliki Forest virus [4]) of the same compound?
The Mean survival time was 8 days.

What about the Mean survival time (Coronaviridae) of the same compound?
The Mean survival time was 9.4 days.

What about the Mean survival time (Banzi virus [6]) of the same compound?
The Mean survival time was 9 days.

And the Mean survival time [7]?
Its Mean survival time is 5.7 days.

What about the Mean survival time (San Angelo virus [8]) of the same compound?
The Mean survival time was 11.3 days.

And the Ratio [19]?
The Ratio was 10.

What about the Mean survival time (Banzi virus [11]) of the same compound?
Its Mean survival time is 9 days.

And the Ratio [20]?
Its Ratio is 9.

And the Ratio [21]?
Its Ratio is 9.

And the Mean survival time (Semliki Forest virus [14])?
Its Mean survival time is 9 days.

What about the Ratio [22] of the same compound?
The Ratio was 10.

And the Ratio [23]?
Its Ratio is 10.

And the Ratio [24]?
Its Ratio is 6.

What about the Mean survival time (San Angelo virus [15]) of the same compound?
The Mean survival time was 10.5 days.

What about the Ratio [25] of the same compound?
The Ratio was 7.

And the Ratio [26]?
Its Ratio is 9.

And the Mean survival time [17]?
Its Mean survival time is 5.5 days.
